# Source: patent US11160794B2, “Methods for treating congenital disorders of glycosylation” (Maggie's Pearl, LLC, priority 2018, dated 2021)
# Counter-ions that a name gives are not always drawn.
# Test system: SEC53 variant (pmm2 mutant) yeast
# Experiment: Yeast growth rescue of SEC53 variant strains (validation of drug screen hits)
# Type: cell-based
# Details: haploid and heterozygous diploid cells; dose response
# Protocol: All strains used herein are in S288c background. Strains were grown in Synthetic Complete (“SC”) or SC drop out media (Sunrise)+2% dextrose at 30° C. unless otherwise noted. Standard genetic procedures of transformation and tetrad analysis were followed to construct strains. SEC53 rescue plasmid (pPL1) was generated by cloning the SEC53 promoter, open reading frame, and terminator sequences into the episomal pRS316 containing the URA3 selectable marker. SEC53 variants were generated by cloning the relevant promoter, GFP or SEC53 gene, and CYC1 terminator sequences into an integrating plasmid containing the LEU2 selectable marker and integrated at the SwaI restriction site into the HO locus. For PMM2 variants, the SEC53 ORF was replaced with a codon-optimized PMM2. Plasmids were generated by Next Interactions or GenScript. Strains were generated by Next Interactions or well-known techniques.
# Cells from plates were resuspended in SC media to OD600=1.0, then serial diluted into 50 μL SC+FOA media in 384-well plates at 10^−1, 10^−2, and 10^−3. Plates were incubated at 30° C. and absorbance reading at […] were measured by a plate reader (Molecular Devices SpectraMax M3) at the indicated time points. Plates were vortexed briefly to resuspend cells prior to plate readings. 5-floroortic acid was purchased from US Biological and used at a concentration of 1 mg/L.
# 125 nL of compounds or DMSO were dispensed into 384-well plates using the Echo acoustic dispenser (LabCyte) to achieve a final concentration of 25 μM. 50 μL of 10^−2 dilution of an OD600=1.0 or 0.5 yeast cell suspensions were dispensed into the 384-well plates containing compounds or DMSO with a MultiFlo automated dispenser (Biotek). Plates were covered and incubated at 30° C. for 16-21 hours until OD600 reaches ˜0.8. Plates were vortexed briefly to resuspend cells prior to reading.
# MicroSource Spectrum compounds were reordered from MicroSource Discovery Systems and resuspended in DMSO. 5-125 nL compounds or DMSO were dispensed into 384-well plates and 50 μL of yeast cell suspensions or media were dispensed by multichannel pipettes to achieve the desired concentration. Plates were covered and incubated at 30° C. for 16-23 hours until OD600 reaches ˜0.8. Plates were vortexed briefly to resuspend cells prior to plate readings.
# pACT1-F126L, pSEC53-V238M, and pSEC53-F126L haploids and pACT1-F126L/pACT1-R148H, pSEC53-V238M/pSEC53-R148H, and pSEC53-F126L/pSEC53-R148H heterozygous diploids were advanced to a high-throughput drug screen. Screening was done in a 2,560 compound MicroSource Spectrum library collection consisting of FDA approved drugs, bioactive tool compounds, and natural products. Each strain was screened in duplicate and in 384-well plates, with each plate containing 32 wells of the negative control (no drugs) and 24 wells of the positive controls (wild type cells). […] Additionally, there is good correlation between replicates (correlation >0.4 for all panels). With a Z-score cutoff of 2.0, we initially identified six compounds that may be promising and their ability to rescue growth is conserved between the haploid and diploid strains.
# These initial hits were further studied for validation. […] At the maximum dose tested, alpha-cyano-4-hydroxycinnamic acid (Compound 1) rescues the F126L allele by 17.7% in haploid and 24.5% in diploid cells.
row,Compound,rescue of growth of SEC53 alleles
1,"Cc1ccc(C(=O)Nc2ccc(S(=O)(=O)O)c3cc(S(=O)(=O)O)cc(S(=O)(=O)O)c23)cc1NC(=O)c1cccc(NC(=O)Nc2cccc(C(=O)Nc3cc(C(=O)Nc4ccc(S(=O)(=O)O)c5cc(S(=O)(=O)O)cc(S(=O)(=O)O)c45)ccc3C)c2)c1 [Compound 3, 8-[[4-methyl-3-[[3-[[3-[[2-methyl-5-[(4,6,8-trisulfonaphthalen-1-yl)carbamoyl]phenyl]carbamoyl]phenyl]carbamoylamino]benzoyl]amino]benzoyl]amino]naphth alene-1,3,5-trisulfonic acid]",consistent and dose-dependent rescues
2,"NCCS [cysteamine hydrochloride, reference compound]",does not rescue at any dose

# Test system: pmm-2 F125L/F125L worms
# Experiment: Bortezomib-induced growth suppression rescue screen in pmm-2 F125L worms
# Type: in vivo, nematode (worms)
# Details: 25 μM drug, 11 μM Bzb, 5 days; one row per replicate
# From the text: A F119L point mutation strain, orthologous F125L in worms was created.
# Because an underlying defect in glycosylation may be manifested when subjected to external chemical stressors, Pmm-2 F119L homozygous animals were subjected to Tunicamycin and Bortezomib drug exposures. Tunicamycin is an inhibitor of N-linked glycosylation and Bortezomib (Bzb) is an irreversible inhibitor of the proteasome. It was contemplated that either or both drugs would affect the Pmm-2 mutants differently compared to wild type (“WT”).
# Thus, Bzb-induced growth suppression was used as a means to identify compounds that might rescue the global effects of exacerbated glycosylation deficiency. Using this approach, animals were age-synchronized to obtain L1 larvae. Fifteen L1 larvae were dispensed into wells of a 384-well plate containing 25 μM of drugs (obtained from the MicroSource Spectrum library purchased from MicroSource Discovery Systems) and 11 μM Bzb. Bacterial media at fixed optical density was added to wells to enable worms to grow for a 5 day period. Animals were dispensed using Biosorter, a large particle flow cytometer by Union Biometrica, Mass. At the end of the 5 day period, animals were treated with 15 μls of 8 mM sodium azide (for 55 μls of total assay volume). After 20 minutes, immobilized animals were imaged using a plate imager under transmitted light. A custom image processing script was used to extract the areas occupied by worms/well over a 5 day period. Each plate has positive controls (no Bzb) and negative controls (11 μM Bzb) that was used to determine the z score of test wells per plate. After outlier correction for each plate in each replicate, data from all three replicates was compared. Wells per plate with positive z scores greater than 2 were identified as “hits.” If hits reproduced across all three replicates were then compared. […] At least 13 of the 20 compounds belong to the category of antioxidants; still others fall in the category of catecholamines
row,Compound,Status
1,O=c1c(O)cccc2ccc(O)c(O)c12,HIT (Wells per plate with positive z scores greater than 2 were identified as “hits.”)
2,"COc1ccc(C(=O)c2ccc(O)cc2)c(O)c1O [2,3,4′-TRIHYDROXY-4-METHOXYBENZOPHENONE, 2,3,4′-trihydroxy-4-methoxybenzophenone]",HIT (Wells per plate with positive z scores greater than 2 were identified as “hits.”)
3,"CCOc1cccc(C(=O)c2ccc(O)c(O)c2O)c1 [3,4-didesmethyl-5-deshydroxy-3′-ethoxyscleroin]",HIT (Wells per plate with positive z scores greater than 2 were identified as “hits.”)
4,"COc1cccc(O)c1O [3-METHOXYCATECHOL, 3-methoxycatechol]",HIT (Wells per plate with positive z scores greater than 2 were identified as “hits.”)
5,"Nc1ccc(O)c(N)c1 [AMIDOL DIHYDROCHLORIDE, amidol dihydrochloride]",HIT (Wells per plate with positive z scores greater than 2 were identified as “hits.”)
6,"O=c1cc(-c2ccccc2)oc2cc(O)c(O)c(O)c12 [BAICALEIN, baicalein]",HIT (Wells per plate with positive z scores greater than 2 were identified as “hits.”)
7,"CC(CCc1ccc(O)cc1)NCCc1ccc(O)c(O)c1 (stereo not shown) [DOBUTAMINE HYDROCHLORIDE, dobutamine hydrochloride, reference compound]",HIT (Wells per plate with positive z scores greater than 2 were identified as “hits.”)
8,"CC1=NN(c2ccccc2)C(=O)C1 [EDARAVONE, edaravone, reference compound]",HIT (Wells per plate with positive z scores greater than 2 were identified as “hits.”)
9,"O=c1oc2c(O)c(O)cc3c(=O)oc4c(O)c(O)cc1c4c23 [ELLAGIC ACID, ellagic acid]",HIT (Wells per plate with positive z scores greater than 2 were identified as “hits.”)
10,"O=C(O[C@@H]1Cc2c(O)cc(O)cc2O[C@@H]1c1ccc(O)c(O)c1)c1cc(O)c(O)c(O)c1 [EPICATECHIN MONOGALLATE, epicatechin monogallate]",HIT (Wells per plate with positive z scores greater than 2 were identified as “hits.”)
11,"CCC(N)C(O)c1ccc(O)c(O)c1 (stereo not shown) [ETHYLNOREPINEPHRINE HYDROCHLORIDE, ethylnorepinephrine hydrochoride, reference compound]",HIT (Wells per plate with positive z scores greater than 2 were identified as “hits.”)
12,"O=c1c(O)c(-c2ccc(O)c(O)c2)oc2cc(O)ccc12 [FISETIN, fisetin]",HIT (Wells per plate with positive z scores greater than 2 were identified as “hits.”)
13,"O=c1c(O)c(-c2ccc(O)c(O)c2)oc2c(O)c(O)cc(O)c12 [GOSSYPETIN, gossypetin]",HIT (Wells per plate with positive z scores greater than 2 were identified as “hits.”)
14,"O=c1cc(-c2cc(O)c(O)c(O)c2)oc2cc(O)cc(O)c12 [HIERACIN, hieracin]",HIT (Wells per plate with positive z scores greater than 2 were identified as “hits.”)
15,"COc1ccc(-c2coc3cc(O)ccc3c2=O)c(O)c1O [KOPARIN, koparin]",HIT (Wells per plate with positive z scores greater than 2 were identified as “hits.”)
16,"N[C@@H](Cc1ccc(O)c(O)c1)C(=O)O [LEVODOPA, levodopa, reference compound]",HIT (Wells per plate with positive z scores greater than 2 were identified as “hits.”)
17,"O=C(O)c1cc(O)c(=O)c2c(O)c(O)c(O)cc2c1 [PURPUROGALLIN-4-CARBOXYLIC ACID, purpurogallin-4-carboxylic acid]",HIT (Wells per plate with positive z scores greater than 2 were identified as “hits.”)
18,"COc1cc(OC)c2c(=O)c(O)c(-c3ccc(OC)c(OC)c3)oc2c1 [QUERCETIN 5,7,3,4′-TETRAMETHYL ETHER, quercetin 5,7,3′,4′-tetramethyl ether]",HIT (Wells per plate with positive z scores greater than 2 were identified as “hits.”)
19,"COc1cc(O)c2c(=O)c(O)c(-c3ccc(O)c(O)c3)oc2c1 [RHAMNETIN, rhamnetin]",HIT (Wells per plate with positive z scores greater than 2 were identified as “hits.”)
20,"O=C(O[C@@H]1Cc2c(O)cc(O)cc2O[C@@H]1c1cc(O)c(=O)c2c(O)c(O)cc([C@H]3Oc4cc(O)cc(O)c4C[C@H]3O)c2c1)c1cc(O)c(O)c(O)c1 [THEAFLAVIN MONOGALLATES, theaflavin monogallate]",HIT (Wells per plate with positive z scores greater than 2 were identified as “hits.”)
